Assay results reported in paper PMC9358669, “Native metabolomics identifies the rivulariapeptolide family of protease inhibitors” (Nature Communications, 2022).
Like-named read-outs stand apart in the source and are kept apart here. Starred links: 1 amine or outer side, 2 acyl side, 3 side chain; linkers in the order of their positions; H or OH if unused. Positions of bridges follow the written chain, without caps; N, C: chain ends. Non-standard residues stand in square brackets, D forms with d. Residues, ends and D or L forms follow the SMILES beside them. *: point of attachment. Ahp(3S,6R)alloIle = CC[C@@H](C)[C@@H](C(=O)[*:2])N1C(=O)[C@@H](N[*:1])CC[C@H]1O; Propanoyl(2R-OH,3-(4-HOPh)) = O=C([C@H](O)Cc1ccc(O)cc1)*; NMeF = CN[C@@H](Cc1ccccc1)C(=O)O

Assays:
Chymotrypsin [1] = system: Chymotrypsin; set-up: method as in earlier work; settings: cited from earlier work
Chymotrypsin [2] = target: T1, Chymotrypsin (Bos taurus, UniProt P00766); assay: Chymotrypsin inhibition, fluorogenic substrate assay (Suc-Ala-Ala-Pro-Phe-AMC); type: biochemical; settings: for Mean (RFU/s): Chymotrypsin
T1 construct: purchased Sigma-Aldrich

Elastase = target: T2, Elastase (Sus scrofa, UniProt P00772); assay: Elastase inhibition, fluorogenic substrate assay (MeOSuc-Ala-Ala-Pro-Val-AMC); type: biochemical, Sus domesticus; settings: 40 min pre-incubation; for Mean (RFU/s): Elastase
T2 construct: purchased Sigma-Aldrich
T2 sequence (P00772 27-266): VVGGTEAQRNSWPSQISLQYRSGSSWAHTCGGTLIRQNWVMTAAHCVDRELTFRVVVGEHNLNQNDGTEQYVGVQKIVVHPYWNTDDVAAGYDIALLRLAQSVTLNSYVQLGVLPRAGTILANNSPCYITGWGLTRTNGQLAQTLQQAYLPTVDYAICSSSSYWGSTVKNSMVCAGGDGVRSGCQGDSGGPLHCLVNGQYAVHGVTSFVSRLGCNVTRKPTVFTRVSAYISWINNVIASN

Proteinase K = target: T3, Proteinase K (Parengyodontium album, UniProt P06873); assay: Proteinase K inhibition, fluorogenic substrate assay (Suc-Ala-Ala-Pro-Phe-AMC); type: biochemical, Tritirachium album; settings: 40 min pre-incubation; for Mean (RFU/s): Proteinase K
T3 construct: purchased Roche
T3 sequence (P06873 106-384): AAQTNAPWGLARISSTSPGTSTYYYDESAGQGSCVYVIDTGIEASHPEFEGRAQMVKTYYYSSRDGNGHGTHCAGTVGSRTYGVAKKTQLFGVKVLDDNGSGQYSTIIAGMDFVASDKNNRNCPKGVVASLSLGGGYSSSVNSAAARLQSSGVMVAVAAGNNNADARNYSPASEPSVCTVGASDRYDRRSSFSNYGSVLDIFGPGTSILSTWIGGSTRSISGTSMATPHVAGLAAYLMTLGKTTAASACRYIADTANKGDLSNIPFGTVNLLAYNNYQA

[3] = Supplementary Table 5, Top 50 chymotrypsin inhibitors among Ahp-cyclodepsipeptides
[4] = inhibitor concentration 0.0508053 nM
[5] = inhibitor concentration 0.152416 nM
[6] = inhibitor concentration 0.457247 nM
[7] = inhibitor concentration 1.37174 nM
[8] = inhibitor concentration 4.11523 nM
[9] = inhibitor concentration 12.3457 nM
[10] = inhibitor concentration 37.037 nM
[11] = inhibitor concentration 111.111 nM
[12] = inhibitor concentration 333.333 nM
[13] = inhibitor concentration 1000 nM
[14] = inhibitor concentration 3000 nM

CCCC(=O)N[C@@H](CCC(N)=O)C(=O)N[C@@H]1C(=O)N[C@@H](CCCNC(N)=O)C(=O)N[C@H]2CC[C@@H](O)N(C2=O)[C@@H]([C@@H](C)CC)C(=O)N(C)[C@@H](Cc2ccc(OC)c(Br)c2)C(=O)N[C@@H](C(C)C)C(=O)O[C@@H]1C [Symplocamide A]
IC50 (Chymotrypsin [1]; [3]): 0.38 µM

CCCCCC(=O)NCC(=O)N[C@H](C(=O)N[C@@H]1C(=O)N[C@@H](CCC(N)=O)C(=O)N[C@H]2CC[C@@H](O)N(C2=O)[C@@H](Cc2ccccc2)C(=O)N(C)[C@@H](Cc2c[nH]c3ccccc23)C(=O)N[C@@H](C(C)C)C(=O)O[C@@H]1C)[C@@H](C)O [Micropeptin 103]
IC50 (Chymotrypsin [1]; [3]): 1 µM

Dinghupepeptin B
IC50 (Chymotrypsin [1]; [3]): 1.1 µM

CCCCCC(=O)N[C@@H](CC(=O)O)C(=O)N[C@@H]1C(=O)N[C@@H](Cc2ccc(O)cc2)C(=O)N[C@H]2CC[C@@H](O)N(C2=O)[C@@H](CC(C)C)C(=O)N(C)[C@@H](Cc2ccccc2)C(=O)N[C@@H](C(C)C)C(=O)O[C@@H]1C [Cyanopeptolin 963A]
IC50 (Chymotrypsin [1]; [3]): 0.9 µM

C/C=C1\NC(=O)[C@@H](NC(=O)[C@@H](NC(=O)[C@H](C)NC(=O)C/C(C)=C/Cl)C(C)C)[C@@H](C)OC(=O)[C@H](C(C)C)NC(=O)[C@H](Cc2ccc(O)cc2)N(C)C(=O)[C@H](Cc2ccccc2)N2C(=O)[C@H](CC[C@H]2O)NC1=O [Tutuilamide B]
IC50 (Chymotrypsin [1]; [3]): 0.577 µM

CCCCCC(=O)NC(CC(=O)O)C(=O)NC1C(=O)NC(Cc2ccc(O)cc2)C(=O)NC2CCC(O)N(C2=O)C(Cc2ccccc2)C(=O)N(C)C(CCc2ccc(O)cc2)C(=O)NC(C(C)C)C(=O)OC1C (centres unmarked) [Cyanopeptolin CP1027]
IC50 (Chymotrypsin [1]; [3]): 0.26 µM

CC[C@H](C)[C@@H]1NC(=O)[C@H](Cc2ccccc2)N(C)C(=O)[C@H](Cc2ccccc2)N2C(=O)[C@H](CC[C@H]2O)NC(=O)[C@H](CC(C)C)NC(=O)[C@@H](NC(=O)[C@H](O)CO)[C@@H](C)OC1=O [Micropeptin MM836]
IC50 (Chymotrypsin [1]; [3]): 1.4 µM

CCCCCC(=O)N[C@@H](CCC(=O)O)C(=O)N[C@@H]1C(=O)N[C@@H](Cc2ccc(O)cc2)C(=O)N[C@H]2CC[C@@H](O)N(C2=O)[C@@H](CC(C)C)C(=O)N(C)[C@@H](Cc2ccc(O)cc2)C(=O)N[C@@H](C(C)C)C(=O)O[C@@H]1C [Micropeptin E]
IC50 (Chymotrypsin [1]; [3]): 1 µM

Cyanopeptolin CP1018
IC50 (Chymotrypsin [1]; [3]): 0.24 µM

Crocapeptin B
IC50 (Chymotrypsin [1]; [3]): 0.2 µM

Micropeptin MM850
IC50 (Chymotrypsin [1]; [3]): 1.7 µM

C/C=C1\NC(=O)[C@@H](NC(=O)[C@@H](NC(=O)[C@H](C)NC(=O)CCC)C(C)C)[C@@H](C)OC(=O)[C@H](C(C)C)NC(=O)[C@H](Cc2ccc(O)cc2)N(C)C(=O)[C@H](Cc2ccccc2)N2C(=O)[C@H](CC[C@H]2O)NC1=O [Bouillomide A]
IC50 (Chymotrypsin [1]; [3]): 0.17 µM

C/C=C1\NC(=O)[C@@H](NC(=O)[C@@H](NC(=O)[C@H](C)NC(=O)C/C(C)=C/Cl)[C@@H](C)CC)[C@@H](C)OC(=O)[C@H](C(C)C)NC(=O)[C@H](Cc2ccc(O)cc2)N(C)C(=O)[C@H](Cc2ccccc2)N2C(=O)[C@H](CC[C@H]2O)NC1=O [Tutuilamide A]
IC50 (Chymotrypsin [1]; [3]): 1 µM

CCC(=O)N[C@@H](CCC(N)=O)C(=O)N[C@@H]1C(=O)N[C@@H](CC(C)C)C(=O)N[C@H]2CC[C@@H](O)N(C2=O)[C@@H](Cc2ccccc2)C(=O)N(C)[C@@H](Cc2ccc(O)cc2)C(=O)N[C@@H](C(C)C)C(=O)O[C@@H]1C [Crocapeptin A1]
IC50 (Chymotrypsin [1]; [3]): 0.1 µM

Loggerpeptin A
IC50 (Chymotrypsin [1]; [3]): 0.24 µM

Micropeptin 88-A
IC50 (Chymotrypsin [1]; [3]): 0.4 µM

Micropeptin T-20
IC50 (Chymotrypsin [1]; [3]): 0.0025 µM

Micropeptin KB1048
IC50 (Chymotrypsin [1]; [3]): 0.63 µM

CCCCCCCC(=O)N[C@@H](CCC(=O)O)C(=O)N[C@@H]1C(=O)N[C@@H](Cc2ccc(O)cc2)C(=O)N[C@H]2CC[C@@H](O)N(C2=O)[C@@H](Cc2ccccc2)C(=O)N(C)[C@@H](Cc2ccc(O)cc2)C(=O)N[C@@H](C(C)C)C(=O)O[C@@H]1C [Micropeptin D]
IC50 (Chymotrypsin [1]; [3]): 1.2 µM

CCCCCC(=O)NCC(=O)N[C@H](C(=O)N[C@@H]1C(=O)N[C@@H](CCC(N)=O)C(=O)N[C@H]2CC[C@@H](O)N(C2=O)[C@@H](Cc2ccccc2)C(=O)N(C)[C@@H](Cc2ccc(O)cc2)C(=O)N[C@@H](C(C)C)C(=O)O[C@@H]1C)[C@@H](C)O [Micropeptin LH1021]
IC50 (Chymotrypsin [1]; [3]): 1.1 µM

CC[C@H](C)[C@@H]1NC(=O)[C@H](Cc2ccccc2)N(C)C(=O)[C@H](C(C)C)N2C(=O)[C@H](CC[C@H]2O)NC(=O)[C@H](CC2C=CC(O)CC2)NC(=O)[C@@H](NC(=O)[C@@H](CCC(N)=O)NC(=O)C(O)Cc2ccc(O)cc2)[C@H](C)OC1=O (some centres unmarked) [Micropeptin KB1046]
IC50 (Chymotrypsin [1]; [3]): 0.22 µM

CCCCCC(=O)N[C@@H](CCC(=O)O)C(=O)N[C@@H]1C(=O)N[C@@H](Cc2ccc(O)cc2)C(=O)N[C@H]2CC[C@@H](O)N(C2=O)[C@@H](Cc2ccccc2)C(=O)N(C)[C@@H](Cc2ccc(O)cc2)C(=O)N[C@@H](C(C)C)C(=O)O[C@@H]1C [Micropeptin C]
IC50 (Chymotrypsin [1]; [3]): 1.1 µM

CC(C)C[C@@H]1NC(=O)[C@@H](NC(=O)[C@H](CCC(N)=O)NC(=O)C(C)C)[C@@H](C)OC(=O)[C@H](C(C)C)NC(=O)C(Cc2ccc(O)cc2)N(C)C(=O)[C@H](Cc2ccccc2)N2C(=O)[C@H](CC[C@H]2O)NC1=O (some centres unmarked) [Crocapeptin A2]
IC50 (Chymotrypsin [1]; [3]): 0.1 µM

Micropeptin 88-Y
IC50 (Chymotrypsin [1]; [3]): 1.3 µM

CC[C@@H](C)[C@H]1C(=O)N(C)[C@@H](Cc2ccccc2)C(=O)N[C@@H](C(C)C)C(=O)O[C@H](C)[C@H](NC(=O)[C@H](CCC(N)=O)NC(=O)[C@H](O)Cc2ccc(O)cc2)C(=O)N[C@@H](Cc2ccc(O)cc2)C(=O)N[C@H]2CC[C@@H](O)N1C2=O [Micropeptin KT1042] ({Propanoyl(2R-OH,3-(4-HOPh))}-QTY[Ahp(3S,6R)alloIle][NMeF]V; ester 2-C)
IC50 (Chymotrypsin [1]; [3]): 0.26 µM

Microcystin 996
IC50 (Chymotrypsin [1]): 0.64 µM

Micropeptin KB991
IC50 (Chymotrypsin [1]; [3]): 0.87 µM

CC=C1NC(=O)[C@@H](NC(=O)[C@@H](NC(=O)[C@@H]2CCCN2C(=O)CCC)[C@@H](C)OC(=O)C2CCCN2C(=O)CCC)[C@@H](C)OC(=O)[C@H](C(C)C)NC(=O)[C@H](Cc2ccc(O)cc2)N(C)C(=O)[C@H](CC(C)C)N2C(=O)[C@H](CC[C@H]2O)NC1=O (some centres unmarked) [Rivulariapeptolide 1121, rivulariapeptolide 1121]
IC50 (Chymotrypsin [2]; 40 min pre-incubation, mean, n = 3, read-out: IC50 Chymotrypsin): 0.0355 µM
Mean (RFU/s) (Chymotrypsin [2]; inhibitor concentration 0.0508053 nM, 40 min pre-incubation): 4.522 RFU/s
Mean (RFU/s) (Chymotrypsin [2]; inhibitor concentration 0.152416 nM, 40 min pre-incubation): 4.745 RFU/s
Mean (RFU/s) (Chymotrypsin [2]; inhibitor concentration 0.457247 nM, 40 min pre-incubation): 4.969 RFU/s
Mean (RFU/s) (Chymotrypsin [2]; inhibitor concentration 1.37174 nM, 40 min pre-incubation): 4.65 RFU/s
Mean (RFU/s) (Chymotrypsin [2]; inhibitor concentration 4.11523 nM, 40 min pre-incubation): 4.6 RFU/s
Mean (RFU/s) (Chymotrypsin [2]; inhibitor concentration 12.3457 nM, 40 min pre-incubation): 4.156 RFU/s
Mean (RFU/s) (Chymotrypsin [2]; inhibitor concentration 37.037 nM, 40 min pre-incubation): 1.852 RFU/s
Mean (RFU/s) (Chymotrypsin [2]; inhibitor concentration 111.111 nM, 40 min pre-incubation): 1.527 RFU/s
Mean (RFU/s) (Chymotrypsin [2]; inhibitor concentration 333.333 nM, 40 min pre-incubation): 0.623 RFU/s
Mean (RFU/s) (Chymotrypsin [2]; inhibitor concentration 1000 nM, 40 min pre-incubation): 0.1967 RFU/s
Mean (RFU/s) (Chymotrypsin [2]; inhibitor concentration 3000 nM, 40 min pre-incubation): 0 RFU/s
IC50 (Chymotrypsin [2]; Supplementary Table 5, compounds of this study, read-out: Chymotrypsin IC50): 0.0355 µM
IC50 (Elastase; mean, n = 3): 0.0132 µM
Mean (RFU/s) (Elastase; [4]): 0.8433 RFU/s
Mean (RFU/s) (Elastase; [5]): 0.7923 RFU/s
Mean (RFU/s) (Elastase; [6]): 0.7877 RFU/s
Mean (RFU/s) (Elastase; [7]): 0.7943 RFU/s
Mean (RFU/s) (Elastase; [8]): 0.7343 RFU/s
Mean (RFU/s) (Elastase; [9]): 0.4323 RFU/s
Mean (RFU/s) (Elastase; [10]): 0.094 RFU/s
Mean (RFU/s) (Elastase; [11]): 0.02167 RFU/s
Mean (RFU/s) (Elastase; [12]): 0 RFU/s
Mean (RFU/s) (Elastase; [13]): 0 RFU/s
Mean (RFU/s) (Elastase; [14]): 0 RFU/s
IC50 (Proteinase K; mean, n = 3): 0.048 µM
Mean (RFU/s) (Proteinase K; [4]): 6.561 RFU/s
Mean (RFU/s) (Proteinase K; [5]): 6.281 RFU/s
Mean (RFU/s) (Proteinase K; [6]): 6.268 RFU/s
Mean (RFU/s) (Proteinase K; [7]): 6.292 RFU/s
Mean (RFU/s) (Proteinase K; [8]): 6.214 RFU/s
Mean (RFU/s) (Proteinase K; [9]): 5.471 RFU/s
Mean (RFU/s) (Proteinase K; [10]): 4.069 RFU/s
Mean (RFU/s) (Proteinase K; [11]): 0.93 RFU/s
Mean (RFU/s) (Proteinase K; [12]): 0.1023 RFU/s
Mean (RFU/s) (Proteinase K; [13]): 0 RFU/s
Mean (RFU/s) (Proteinase K; [14]): 0 RFU/s

Cyanopeptolin CP992
IC50 (Chymotrypsin [1]; [3]): 0.24 µM

CC[C@H](C)[C@@H]1NC(=O)[C@H](Cc2ccc(O)cc2)N(C)C(=O)[C@H]([C@@H](C)CC)N2C(=O)C(CCC2O)NC(=O)[C@H](CC(C)C)NC(=O)[C@@H]2C(OC1=O)C(C)CN2C(=O)[C@H](CCC(N)=O)NC(C)=O (some centres unmarked) [Nostopeptin B]
IC50 (Chymotrypsin [1]; [3]): 1.6 µM

CC(C)C[C@@H]1NC(=O)[C@@H](NC(=O)[C@@H](NC(=O)[C@H](C)NC(=O)[C@H](CCCc2ccc(O)cc2)NC(=O)[C@H](O)CO)C(C)C)[C@@H](C)OC(=O)[C@H](C(C)C)NC(=O)[C@H](Cc2ccc(O)c(Br)c2)N(C)C(=O)[C@@H]2[C@H](C)O[C@@H]3CC[C@H](NC1=O)C(=O)N23 [Largamide D oxazolidine]
IC50 (Chymotrypsin [1]; [3]): 0.928 µM

CC[C@@H](C)[C@H]1NC(=O)[C@@H](Cc2ccccc2)N(C)C(=O)[C@@H](CC(C)C)N2C(=O)[C@@H](CC[C@@H]2O)NC(=O)[C@@H](Cc2ccc(O)cc2)NC(=O)[C@H](NC(=O)[C@H](CCC(N)=O)NC(=O)[C@H](O)Cc2ccc(O)cc2)[C@@H](C)OC1=O [Micropeptin DR1056]
IC50 (Chymotrypsin [1]; [3]): 1.6 µM
